What was measured:
[1] = target: T1, Dual specificity mitogen-activated protein kinase kinase 5 (Homo sapiens) (UniProt Q13163); assay: Selectivity interaction (ScanMAX (DiscoverX)) EUB0000700a MAP2K5; conditions: at 10 µM
T1 sequence (whole entry): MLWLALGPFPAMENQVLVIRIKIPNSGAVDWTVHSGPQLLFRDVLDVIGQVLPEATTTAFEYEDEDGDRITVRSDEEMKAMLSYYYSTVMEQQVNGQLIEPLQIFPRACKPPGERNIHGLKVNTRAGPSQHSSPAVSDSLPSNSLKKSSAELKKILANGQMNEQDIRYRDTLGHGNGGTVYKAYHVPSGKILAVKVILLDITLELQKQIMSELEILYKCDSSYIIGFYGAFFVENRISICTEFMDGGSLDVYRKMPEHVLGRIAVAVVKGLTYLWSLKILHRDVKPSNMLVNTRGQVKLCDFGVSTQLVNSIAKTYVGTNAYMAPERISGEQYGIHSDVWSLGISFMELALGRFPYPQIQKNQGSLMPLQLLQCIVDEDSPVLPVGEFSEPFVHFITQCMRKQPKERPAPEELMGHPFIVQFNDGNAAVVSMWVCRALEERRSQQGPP

[2] = target: Mitogen-activated protein kinase kinase kinase kinase 2 (Homo sapiens) (UniProt Q12851); conditions: at 1 µM
Chain of Mitogen-activated protein kinase kinase kinase kinase 2 (Homo sapiens) (Q12851 whole entry): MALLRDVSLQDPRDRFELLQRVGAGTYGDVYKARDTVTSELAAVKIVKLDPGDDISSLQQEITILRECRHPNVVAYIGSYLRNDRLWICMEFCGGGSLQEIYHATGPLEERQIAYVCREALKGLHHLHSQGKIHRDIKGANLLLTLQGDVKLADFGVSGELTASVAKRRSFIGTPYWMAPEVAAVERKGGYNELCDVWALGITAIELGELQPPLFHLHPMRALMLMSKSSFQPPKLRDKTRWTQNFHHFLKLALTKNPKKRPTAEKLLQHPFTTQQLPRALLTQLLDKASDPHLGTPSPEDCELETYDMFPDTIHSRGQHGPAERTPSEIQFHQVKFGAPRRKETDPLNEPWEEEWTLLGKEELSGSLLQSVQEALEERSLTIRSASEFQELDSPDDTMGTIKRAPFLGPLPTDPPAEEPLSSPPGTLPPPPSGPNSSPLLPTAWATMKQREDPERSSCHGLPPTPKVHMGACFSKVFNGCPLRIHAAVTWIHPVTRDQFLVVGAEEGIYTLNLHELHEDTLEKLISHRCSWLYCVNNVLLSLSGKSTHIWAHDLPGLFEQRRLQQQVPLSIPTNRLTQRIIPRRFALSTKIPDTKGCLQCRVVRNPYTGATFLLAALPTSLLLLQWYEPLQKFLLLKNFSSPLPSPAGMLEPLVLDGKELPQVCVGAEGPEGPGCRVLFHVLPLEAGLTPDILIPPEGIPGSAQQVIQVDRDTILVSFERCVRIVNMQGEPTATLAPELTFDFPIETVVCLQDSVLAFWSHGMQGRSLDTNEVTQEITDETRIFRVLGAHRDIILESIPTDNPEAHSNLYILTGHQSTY

[3] = target: Hepatocyte growth factor receptor (Homo sapiens) (UniProt P08581); conditions: at 1 µM
Chain of Hepatocyte growth factor receptor (Homo sapiens) (P08581 whole entry): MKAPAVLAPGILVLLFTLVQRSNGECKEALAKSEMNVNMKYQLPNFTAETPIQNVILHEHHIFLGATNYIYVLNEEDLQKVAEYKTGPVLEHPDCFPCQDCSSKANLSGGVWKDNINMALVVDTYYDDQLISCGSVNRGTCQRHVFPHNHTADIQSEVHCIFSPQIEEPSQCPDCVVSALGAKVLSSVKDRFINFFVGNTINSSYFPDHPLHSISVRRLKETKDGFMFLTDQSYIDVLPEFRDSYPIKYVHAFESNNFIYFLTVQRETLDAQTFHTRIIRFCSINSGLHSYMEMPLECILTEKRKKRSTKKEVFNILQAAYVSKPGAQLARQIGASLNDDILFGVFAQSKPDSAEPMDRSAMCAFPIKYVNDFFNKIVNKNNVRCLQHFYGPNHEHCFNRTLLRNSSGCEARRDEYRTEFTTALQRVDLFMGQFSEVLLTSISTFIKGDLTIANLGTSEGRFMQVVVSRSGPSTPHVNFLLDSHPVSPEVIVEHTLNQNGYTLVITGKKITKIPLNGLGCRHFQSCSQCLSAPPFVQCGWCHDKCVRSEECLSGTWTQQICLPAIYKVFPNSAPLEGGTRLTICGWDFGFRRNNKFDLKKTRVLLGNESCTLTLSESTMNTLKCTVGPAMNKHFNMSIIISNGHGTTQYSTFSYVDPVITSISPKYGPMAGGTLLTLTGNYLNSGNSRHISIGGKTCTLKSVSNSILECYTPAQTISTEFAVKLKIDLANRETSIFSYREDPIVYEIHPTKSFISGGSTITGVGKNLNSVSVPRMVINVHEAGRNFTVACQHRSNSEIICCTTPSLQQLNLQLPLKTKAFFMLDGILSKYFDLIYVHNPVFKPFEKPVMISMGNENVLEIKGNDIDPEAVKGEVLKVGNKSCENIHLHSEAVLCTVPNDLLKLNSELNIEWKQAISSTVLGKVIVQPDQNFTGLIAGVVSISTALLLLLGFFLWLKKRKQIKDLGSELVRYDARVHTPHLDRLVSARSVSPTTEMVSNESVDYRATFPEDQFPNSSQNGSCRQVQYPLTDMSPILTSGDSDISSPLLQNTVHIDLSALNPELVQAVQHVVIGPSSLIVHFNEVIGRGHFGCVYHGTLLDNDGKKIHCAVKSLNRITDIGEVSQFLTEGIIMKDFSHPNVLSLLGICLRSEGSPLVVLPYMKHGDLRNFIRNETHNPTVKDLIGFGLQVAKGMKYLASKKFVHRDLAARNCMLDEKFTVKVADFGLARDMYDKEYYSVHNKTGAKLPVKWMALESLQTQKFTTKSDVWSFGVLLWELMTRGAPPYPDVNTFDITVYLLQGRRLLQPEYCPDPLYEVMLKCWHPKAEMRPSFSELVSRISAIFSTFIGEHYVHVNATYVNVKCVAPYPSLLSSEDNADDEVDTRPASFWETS

[4] = target: T2, Mitogen-activated protein kinase kinase kinase 19 (Homo sapiens) (UniProt Q56UN5); assay: Selectivity interaction (KinomeScan (DiscoverX)) EUB0000701a MAP3K19; conditions: at 1 µM
T2 sequence (whole entry): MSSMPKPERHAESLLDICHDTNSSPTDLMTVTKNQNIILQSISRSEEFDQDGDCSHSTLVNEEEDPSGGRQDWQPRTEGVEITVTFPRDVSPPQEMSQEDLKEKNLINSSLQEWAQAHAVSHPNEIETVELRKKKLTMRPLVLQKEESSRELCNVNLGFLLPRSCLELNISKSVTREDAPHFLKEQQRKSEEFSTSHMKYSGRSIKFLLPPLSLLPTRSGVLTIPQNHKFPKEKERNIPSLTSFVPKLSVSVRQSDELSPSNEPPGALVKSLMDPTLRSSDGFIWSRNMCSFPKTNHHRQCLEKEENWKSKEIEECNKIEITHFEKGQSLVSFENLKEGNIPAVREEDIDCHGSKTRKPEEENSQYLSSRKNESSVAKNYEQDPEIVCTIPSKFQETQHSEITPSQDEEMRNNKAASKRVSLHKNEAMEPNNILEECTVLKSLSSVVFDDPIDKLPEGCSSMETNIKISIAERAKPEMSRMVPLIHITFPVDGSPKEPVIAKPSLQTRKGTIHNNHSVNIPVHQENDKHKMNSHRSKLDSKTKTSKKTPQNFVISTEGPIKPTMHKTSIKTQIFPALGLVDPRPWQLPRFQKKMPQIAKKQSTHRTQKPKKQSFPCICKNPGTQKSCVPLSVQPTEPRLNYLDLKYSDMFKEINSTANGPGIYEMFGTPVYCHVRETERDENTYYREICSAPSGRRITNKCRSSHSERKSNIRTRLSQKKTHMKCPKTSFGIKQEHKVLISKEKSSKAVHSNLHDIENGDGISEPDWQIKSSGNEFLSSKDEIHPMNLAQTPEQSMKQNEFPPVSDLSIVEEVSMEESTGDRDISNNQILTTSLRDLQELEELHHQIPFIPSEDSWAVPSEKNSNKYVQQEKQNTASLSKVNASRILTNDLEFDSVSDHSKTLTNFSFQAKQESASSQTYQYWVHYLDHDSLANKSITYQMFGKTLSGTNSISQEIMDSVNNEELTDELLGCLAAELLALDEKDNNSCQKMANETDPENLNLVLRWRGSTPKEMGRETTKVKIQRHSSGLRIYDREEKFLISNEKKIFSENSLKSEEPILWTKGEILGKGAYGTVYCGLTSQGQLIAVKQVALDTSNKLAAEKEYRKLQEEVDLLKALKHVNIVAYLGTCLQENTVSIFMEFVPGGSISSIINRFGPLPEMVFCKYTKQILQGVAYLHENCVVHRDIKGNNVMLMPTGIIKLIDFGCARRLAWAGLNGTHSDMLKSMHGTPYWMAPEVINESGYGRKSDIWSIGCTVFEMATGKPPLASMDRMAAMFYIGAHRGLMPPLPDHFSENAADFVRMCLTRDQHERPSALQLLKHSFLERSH

[5] = target: T1, Dual specificity mitogen-activated protein kinase kinase 5 (Homo sapiens); assay: Selectivity interaction (KinomeScan (DiscoverX)) EUB0000701a MAP2K5; conditions: at 1 µM
[6] = target: Tyrosine-protein kinase ABL1 (Homo sapiens, UniProt P00519); assay: Selectivity interaction (KinomeScan (DiscoverX)) EUB0000701a ABL1; conditions: at 1 µM
Chain of Tyrosine-protein kinase ABL1 (P00519 whole entry): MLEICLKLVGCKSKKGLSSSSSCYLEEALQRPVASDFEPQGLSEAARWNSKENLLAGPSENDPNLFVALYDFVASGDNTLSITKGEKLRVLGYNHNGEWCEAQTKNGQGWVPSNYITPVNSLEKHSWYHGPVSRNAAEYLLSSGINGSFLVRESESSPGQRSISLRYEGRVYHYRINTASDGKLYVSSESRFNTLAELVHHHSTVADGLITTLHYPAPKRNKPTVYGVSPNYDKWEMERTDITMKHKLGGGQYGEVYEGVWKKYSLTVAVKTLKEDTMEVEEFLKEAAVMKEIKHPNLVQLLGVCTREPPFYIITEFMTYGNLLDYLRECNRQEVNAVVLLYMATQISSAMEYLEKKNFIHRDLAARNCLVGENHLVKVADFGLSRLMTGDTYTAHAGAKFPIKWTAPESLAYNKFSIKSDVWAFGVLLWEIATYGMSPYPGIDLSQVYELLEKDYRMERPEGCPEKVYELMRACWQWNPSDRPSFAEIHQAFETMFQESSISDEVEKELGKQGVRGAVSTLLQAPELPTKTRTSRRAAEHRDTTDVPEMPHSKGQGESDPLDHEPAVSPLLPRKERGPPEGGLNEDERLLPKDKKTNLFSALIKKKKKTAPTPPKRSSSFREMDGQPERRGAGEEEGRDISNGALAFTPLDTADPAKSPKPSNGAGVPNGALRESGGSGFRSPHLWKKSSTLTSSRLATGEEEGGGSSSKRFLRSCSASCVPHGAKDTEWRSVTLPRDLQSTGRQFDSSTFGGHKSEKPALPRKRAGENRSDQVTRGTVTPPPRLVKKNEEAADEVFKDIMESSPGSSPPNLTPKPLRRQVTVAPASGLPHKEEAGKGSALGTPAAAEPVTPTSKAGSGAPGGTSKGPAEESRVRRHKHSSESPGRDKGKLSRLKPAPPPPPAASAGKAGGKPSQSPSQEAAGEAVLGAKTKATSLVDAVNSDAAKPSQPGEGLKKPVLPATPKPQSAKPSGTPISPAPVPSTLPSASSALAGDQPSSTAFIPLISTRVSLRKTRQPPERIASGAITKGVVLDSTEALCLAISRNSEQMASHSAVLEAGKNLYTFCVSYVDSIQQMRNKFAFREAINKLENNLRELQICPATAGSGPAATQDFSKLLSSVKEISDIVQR

[7] = test system: T3, Receptor-type tyrosine-protein kinase FLT3 (Homo sapiens), P36888 [D835V]; assay: (§1) Selectivity interaction (KinomeScan (DiscoverX)) EUB0000701a FLT3; conditions: at 1 µM
T3 sequence (whole entry): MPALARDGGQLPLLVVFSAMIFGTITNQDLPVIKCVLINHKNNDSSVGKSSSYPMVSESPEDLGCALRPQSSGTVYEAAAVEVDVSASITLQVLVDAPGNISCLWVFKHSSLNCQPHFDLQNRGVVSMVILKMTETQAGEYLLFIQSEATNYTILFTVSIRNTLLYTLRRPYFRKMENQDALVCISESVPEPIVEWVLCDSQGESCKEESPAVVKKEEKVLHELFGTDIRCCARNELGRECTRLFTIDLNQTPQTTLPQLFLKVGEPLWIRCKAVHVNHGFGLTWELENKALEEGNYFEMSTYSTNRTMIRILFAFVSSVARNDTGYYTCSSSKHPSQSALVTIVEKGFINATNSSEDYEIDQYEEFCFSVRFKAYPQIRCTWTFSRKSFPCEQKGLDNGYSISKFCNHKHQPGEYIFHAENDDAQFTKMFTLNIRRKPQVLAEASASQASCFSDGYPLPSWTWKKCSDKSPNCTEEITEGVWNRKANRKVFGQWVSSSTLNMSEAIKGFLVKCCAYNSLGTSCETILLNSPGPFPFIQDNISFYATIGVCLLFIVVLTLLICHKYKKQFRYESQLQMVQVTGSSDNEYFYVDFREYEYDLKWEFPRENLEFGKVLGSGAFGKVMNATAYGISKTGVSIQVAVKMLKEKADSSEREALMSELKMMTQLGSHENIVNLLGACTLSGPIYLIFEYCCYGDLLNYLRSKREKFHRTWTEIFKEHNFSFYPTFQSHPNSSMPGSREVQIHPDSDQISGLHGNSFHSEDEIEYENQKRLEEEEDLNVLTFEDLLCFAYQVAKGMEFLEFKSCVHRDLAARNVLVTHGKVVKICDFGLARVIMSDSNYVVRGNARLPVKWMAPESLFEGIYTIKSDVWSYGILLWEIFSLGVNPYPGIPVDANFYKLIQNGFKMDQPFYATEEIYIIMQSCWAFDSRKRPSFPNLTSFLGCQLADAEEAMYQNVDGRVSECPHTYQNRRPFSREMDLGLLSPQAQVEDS

[8] = test system: Receptor-type tyrosine-protein kinase FLT3 (Homo sapiens), P36888 [UNDEFINED MUTATION]; assay: as §1; conditions: at 1 µM
[9] = target: Inhibitor of nuclear factor kappa-B kinase subunit epsilon (Homo sapiens) (UniProt Q14164); conditions: at 1 µM
[10] = target: Epidermal growth factor receptor (Homo sapiens, UniProt P00533); assay: Selectivity interaction (KinomeScan (DiscoverX)) EUB0000709a EGFR; conditions: at 100 nM
[11] = target: T4, Phosphatidylinositol 4,5-bisphosphate 3-kinase catalytic subunit delta isoform (Homo sapiens) (UniProt O00329); assay: Selectivity interaction (KinomeScan (DiscoverX)) EUB0000709a PIK3CD; conditions: at 100 nM
T4 sequence (whole entry): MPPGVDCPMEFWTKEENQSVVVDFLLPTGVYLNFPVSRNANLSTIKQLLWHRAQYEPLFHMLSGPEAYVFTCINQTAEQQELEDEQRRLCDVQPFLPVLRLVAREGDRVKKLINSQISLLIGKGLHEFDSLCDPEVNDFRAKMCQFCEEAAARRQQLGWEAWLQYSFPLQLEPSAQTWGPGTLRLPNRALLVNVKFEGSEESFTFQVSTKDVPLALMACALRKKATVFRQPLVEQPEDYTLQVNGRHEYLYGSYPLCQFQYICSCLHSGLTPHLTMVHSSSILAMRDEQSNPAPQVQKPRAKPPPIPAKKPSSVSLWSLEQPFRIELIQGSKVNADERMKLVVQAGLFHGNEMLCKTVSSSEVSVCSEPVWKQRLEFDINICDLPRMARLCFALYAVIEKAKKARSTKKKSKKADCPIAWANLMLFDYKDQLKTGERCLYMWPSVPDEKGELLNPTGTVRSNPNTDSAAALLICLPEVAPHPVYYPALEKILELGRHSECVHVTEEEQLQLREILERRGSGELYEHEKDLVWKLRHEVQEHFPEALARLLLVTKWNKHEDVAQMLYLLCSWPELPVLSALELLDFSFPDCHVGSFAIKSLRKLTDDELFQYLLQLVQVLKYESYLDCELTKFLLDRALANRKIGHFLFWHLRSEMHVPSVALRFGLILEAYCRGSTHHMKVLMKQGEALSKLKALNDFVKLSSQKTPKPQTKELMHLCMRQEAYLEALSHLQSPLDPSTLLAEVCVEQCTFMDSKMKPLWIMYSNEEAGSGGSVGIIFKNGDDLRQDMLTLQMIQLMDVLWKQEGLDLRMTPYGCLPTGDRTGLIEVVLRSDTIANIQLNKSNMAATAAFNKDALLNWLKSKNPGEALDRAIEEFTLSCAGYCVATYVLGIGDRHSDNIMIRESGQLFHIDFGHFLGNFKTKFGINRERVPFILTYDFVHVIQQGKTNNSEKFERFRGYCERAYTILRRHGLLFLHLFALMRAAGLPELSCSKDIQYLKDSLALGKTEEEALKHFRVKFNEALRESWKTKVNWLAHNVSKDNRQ

[12] = target: cAMP-dependent protein kinase catalytic subunit alpha (Homo sapiens, UniProt P17612); assay: Selectivity interaction (KinomeScan (DiscoverX)) EUB0000709a PRKACA; conditions: at 100 nM
[13] = target: T5, Bromodomain-containing protein 7 (Homo sapiens) (UniProt Q9NPI1); assay: Selectivity interaction (Bromodomain panel (DSF assay)) EUB0000004c BRD7
T5 sequence (whole entry): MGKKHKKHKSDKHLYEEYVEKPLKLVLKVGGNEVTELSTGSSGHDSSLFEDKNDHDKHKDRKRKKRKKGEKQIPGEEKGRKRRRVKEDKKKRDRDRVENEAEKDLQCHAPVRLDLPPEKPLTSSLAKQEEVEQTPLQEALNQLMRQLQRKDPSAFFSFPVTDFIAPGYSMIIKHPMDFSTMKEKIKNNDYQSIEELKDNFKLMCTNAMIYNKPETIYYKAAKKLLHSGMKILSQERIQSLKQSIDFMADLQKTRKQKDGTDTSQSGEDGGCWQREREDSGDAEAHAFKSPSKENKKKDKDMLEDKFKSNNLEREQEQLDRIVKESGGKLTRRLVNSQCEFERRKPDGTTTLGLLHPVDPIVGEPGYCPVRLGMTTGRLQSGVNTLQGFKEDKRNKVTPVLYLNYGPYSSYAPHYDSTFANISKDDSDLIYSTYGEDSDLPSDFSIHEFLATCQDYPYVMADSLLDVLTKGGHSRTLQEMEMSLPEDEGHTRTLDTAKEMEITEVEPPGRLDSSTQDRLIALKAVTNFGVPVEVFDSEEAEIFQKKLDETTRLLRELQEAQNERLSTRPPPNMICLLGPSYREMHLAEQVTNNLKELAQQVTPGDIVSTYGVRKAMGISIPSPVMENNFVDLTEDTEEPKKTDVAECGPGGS

[14] = target: Bromodomain-containing protein 9 (Homo sapiens) (UniProt Q9H8M2); assay: Selectivity interaction (Bromodomain panel (DSF assay)) EUB0000004c BRD9
[15] = target: T6, Chromatin remodeling regulator CECR2 (Homo sapiens, UniProt Q9BXF3); assay: Selectivity interaction (Bromodomain panel (DSF assay)) EUB0000004c CECR2
T6 sequence (Q9BXF3 whole entry, looked up): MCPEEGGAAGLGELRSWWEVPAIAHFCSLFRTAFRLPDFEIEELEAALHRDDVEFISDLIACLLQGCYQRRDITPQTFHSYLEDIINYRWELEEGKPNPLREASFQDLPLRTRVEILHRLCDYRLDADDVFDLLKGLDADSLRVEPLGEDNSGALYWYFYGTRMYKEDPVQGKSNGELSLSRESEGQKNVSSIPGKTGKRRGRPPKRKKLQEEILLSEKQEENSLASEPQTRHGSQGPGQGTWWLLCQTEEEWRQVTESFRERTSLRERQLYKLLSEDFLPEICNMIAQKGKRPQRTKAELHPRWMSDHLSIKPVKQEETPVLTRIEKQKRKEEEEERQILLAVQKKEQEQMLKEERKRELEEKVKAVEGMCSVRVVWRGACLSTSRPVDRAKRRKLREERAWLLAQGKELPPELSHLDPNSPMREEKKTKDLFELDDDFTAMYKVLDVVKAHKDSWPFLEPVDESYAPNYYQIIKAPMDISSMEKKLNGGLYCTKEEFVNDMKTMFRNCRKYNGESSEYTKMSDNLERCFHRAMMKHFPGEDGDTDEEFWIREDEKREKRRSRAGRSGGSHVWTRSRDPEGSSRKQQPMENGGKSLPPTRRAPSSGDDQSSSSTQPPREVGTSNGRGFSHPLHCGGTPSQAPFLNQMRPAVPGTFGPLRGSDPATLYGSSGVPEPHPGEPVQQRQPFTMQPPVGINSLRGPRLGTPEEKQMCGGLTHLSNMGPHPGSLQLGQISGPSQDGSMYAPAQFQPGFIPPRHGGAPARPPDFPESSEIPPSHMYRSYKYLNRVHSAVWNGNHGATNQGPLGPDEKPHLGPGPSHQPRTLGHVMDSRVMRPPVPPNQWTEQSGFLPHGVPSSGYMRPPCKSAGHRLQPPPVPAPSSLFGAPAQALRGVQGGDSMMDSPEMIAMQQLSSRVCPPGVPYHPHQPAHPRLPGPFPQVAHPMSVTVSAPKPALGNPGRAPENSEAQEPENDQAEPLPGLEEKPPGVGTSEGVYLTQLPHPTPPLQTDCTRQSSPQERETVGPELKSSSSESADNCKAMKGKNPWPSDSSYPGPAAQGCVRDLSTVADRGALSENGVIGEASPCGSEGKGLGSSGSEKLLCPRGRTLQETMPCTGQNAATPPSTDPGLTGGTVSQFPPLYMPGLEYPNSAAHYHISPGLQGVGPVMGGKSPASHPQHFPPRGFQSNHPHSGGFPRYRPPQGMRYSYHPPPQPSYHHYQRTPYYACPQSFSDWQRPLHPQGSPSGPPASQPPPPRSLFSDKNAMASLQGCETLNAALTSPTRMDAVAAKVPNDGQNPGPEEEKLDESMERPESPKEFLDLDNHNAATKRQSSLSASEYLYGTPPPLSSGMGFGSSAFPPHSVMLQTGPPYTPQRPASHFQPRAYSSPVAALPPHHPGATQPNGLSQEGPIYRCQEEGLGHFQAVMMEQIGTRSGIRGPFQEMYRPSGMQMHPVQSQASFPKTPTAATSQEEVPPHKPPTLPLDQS

[16] = target: T6, Chromatin remodeling regulator CECR2; assay: Selectivity interaction (Bromoscan (DiscoverX, BromoKdELECT)) EUB0000004c CECR2; conditions: at 10 µM
CREB-binding protein = CREB-binding protein (Homo sapiens, UniProt Q92793); assay: Selectivity interaction (Bromoscan (DiscoverX, BromoKdELECT)) EUB0000004c CREBBP; conditions: at 10 µM
[17] = target: Transcription initiation factor TFIID subunit 1 (Homo sapiens, UniProt P21675); assay: Selectivity interaction (Bromoscan (DiscoverX, BromoKdELECT)) EUB0000004c TAF1; conditions: at 10 µM

In the case of `C[C@H](NC(=O)Nc1cc2[nH]ncc2c(CO)n1)c1ccccn1`, the % of control [1] is reported as 17.6%.

`C[C@]1(O)C[C@@H](c2nc(-c3ccc4ccc(-c5ccccc5)nc4c3)c3c(N)nccn32)C1` showed a % of inhibition [2] of 99% and a % of inhibition [3] of 86%.

Work on `CN(C)c1ncnc(-c2ccc3nc(Nc4cc(CN5CCN(C(=O)CC(F)(F)F)CC5)ccn4)[nH]c3c2)c1Cl` yielded a % of control [4] of 15%, a % of control [5] of 1.8% and a % of control [6] of 4.2%. It also gave a % of control [7] of 7%, a % of control [8] of 15% and a % of control [9] of 13%.

`Cn1cc(Cl)c2c(Oc3c(F)cc(Nc4cc(Cl)nc(N)n4)cc3F)ccnc21` gave a % of control [10] of 52%, a % of control [11] of 51% and a % of control [12] of 28%.

In the case of `COc1cc(-c2cn(C)c(=O)c3cnccc23)c(OC)cc1CN(C)C`, the dTm [13] is reported as 6.47 K, the dTm [14] is reported as 9.21 K and the dTm [15] is reported as 5.61 K. It also gave a % of control [16] of 0%, a % of control (CREB-binding protein) of 7.2% and a % of control [17] of 8.4%.
